Assay [1] deals with T1, MAGL (Homo sapiens, UniProt Q99685).
T1 sequence (Q99685 1-303): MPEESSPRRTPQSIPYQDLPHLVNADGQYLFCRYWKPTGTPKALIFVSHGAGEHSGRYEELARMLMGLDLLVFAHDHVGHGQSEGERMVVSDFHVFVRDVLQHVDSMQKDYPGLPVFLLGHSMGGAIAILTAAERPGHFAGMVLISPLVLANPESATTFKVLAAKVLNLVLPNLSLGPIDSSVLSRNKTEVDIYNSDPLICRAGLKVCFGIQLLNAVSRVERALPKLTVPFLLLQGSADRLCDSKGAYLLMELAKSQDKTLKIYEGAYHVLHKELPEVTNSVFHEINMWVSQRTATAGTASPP
The experiment in a line: In vitro competitive activity-based protein profiling, MAGL, human. Particulars: read-out: MAGL % inh. 1 μM (human).

Assay [2] addresses T2, MAGL (Mus musculus, UniProt O35678).
T2 sequence (O35678 1-303): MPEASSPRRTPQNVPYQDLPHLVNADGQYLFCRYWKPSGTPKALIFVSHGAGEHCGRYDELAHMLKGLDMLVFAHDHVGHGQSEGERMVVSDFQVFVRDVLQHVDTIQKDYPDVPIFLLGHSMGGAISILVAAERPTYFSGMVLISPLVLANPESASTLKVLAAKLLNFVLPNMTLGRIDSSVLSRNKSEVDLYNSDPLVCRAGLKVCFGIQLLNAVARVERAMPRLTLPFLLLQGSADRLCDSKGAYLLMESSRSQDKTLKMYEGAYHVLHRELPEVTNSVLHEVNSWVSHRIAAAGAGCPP
Description: Mouse brain proteomes from inhibitor treated mice (oral gavage, sacrificed 4 h after administration). Also noted: mouse brain membrane fraction for mouse assays; from tissue; host or cells: mouse brain (membrane fraction in vitro; brain proteomes of treated C57Bl/6J mice in vivo). Particulars: 5 mg/kg oral gavage, brain proteome 4 h after administration, read-out: MAGL % inh. 5 mg/kg (mouse). It is filed as in vivo.

The target of assay [3] is T2, MAGL. The experiment in a line: In vitro competitive activity-based protein profiling, MAGL, mouse. The settings on record: read-out: MAGL % inh. 1 μM (mouse).
Description: Biological Evaluation In Vitro Competitive Activity-Based Protein Profiling.
Proteomes (mouse brain membrane fraction for mouse assays; human prefrontal cortex membrane fractions for human assays) (50 mL, 1.0 mg/mL total protein concentration) were preincubated with varying concentrations of inhibitors at 37° C. After 30 min, FP-Rh (1.0 mL, 50 mM in DMSO) was added and the mixture was incubated for another 30 min at 37° C. Reactions were quenched with SDS loading buffer (15 μL—4λ) and run on SDS-PAGE.
The target of assay [4] is T3, FAAH (Homo sapiens, UniProt O00519).
T3 sequence (O00519 1-579): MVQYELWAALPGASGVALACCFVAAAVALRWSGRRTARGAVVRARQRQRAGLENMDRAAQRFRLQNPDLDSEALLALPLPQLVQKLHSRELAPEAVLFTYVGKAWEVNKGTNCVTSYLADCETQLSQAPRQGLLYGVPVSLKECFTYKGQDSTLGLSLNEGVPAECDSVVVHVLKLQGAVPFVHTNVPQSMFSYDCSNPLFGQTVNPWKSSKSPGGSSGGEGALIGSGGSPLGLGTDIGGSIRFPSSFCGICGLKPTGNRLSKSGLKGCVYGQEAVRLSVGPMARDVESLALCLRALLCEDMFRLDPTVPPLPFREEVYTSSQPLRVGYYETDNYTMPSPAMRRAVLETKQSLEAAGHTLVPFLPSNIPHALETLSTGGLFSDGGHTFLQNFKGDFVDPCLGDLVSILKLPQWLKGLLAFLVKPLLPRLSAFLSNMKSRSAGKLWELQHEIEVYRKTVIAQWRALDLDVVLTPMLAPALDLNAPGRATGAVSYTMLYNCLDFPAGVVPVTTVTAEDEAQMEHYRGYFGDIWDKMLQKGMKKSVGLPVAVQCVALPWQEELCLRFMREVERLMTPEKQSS
Description: In vitro competitive activity-based protein profiling, FAAH, human. The settings on record: for inhibition at 1 µM: read-out: FAAH % inh. 1 μM (human).

Assay [5] concerns the target T4, FAAH (Mus musculus, UniProt O08914).
T4 sequence (O08914 1-579): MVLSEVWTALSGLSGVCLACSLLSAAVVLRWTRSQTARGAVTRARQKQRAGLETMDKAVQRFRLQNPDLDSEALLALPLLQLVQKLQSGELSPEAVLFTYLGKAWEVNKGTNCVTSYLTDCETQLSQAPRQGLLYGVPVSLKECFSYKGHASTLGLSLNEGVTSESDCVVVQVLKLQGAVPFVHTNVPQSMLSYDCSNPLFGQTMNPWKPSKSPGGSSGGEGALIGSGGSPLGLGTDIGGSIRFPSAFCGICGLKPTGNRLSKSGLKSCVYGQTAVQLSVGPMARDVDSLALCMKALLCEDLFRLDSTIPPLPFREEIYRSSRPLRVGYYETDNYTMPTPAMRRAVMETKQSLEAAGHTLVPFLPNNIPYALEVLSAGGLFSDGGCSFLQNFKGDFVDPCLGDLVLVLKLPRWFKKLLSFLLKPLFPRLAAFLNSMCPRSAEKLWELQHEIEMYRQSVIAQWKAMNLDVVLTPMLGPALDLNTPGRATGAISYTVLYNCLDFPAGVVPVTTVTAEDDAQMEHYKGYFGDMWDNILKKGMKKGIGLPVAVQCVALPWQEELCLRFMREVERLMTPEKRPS
The experiment in a line: In vitro competitive activity-based protein profiling, FAAH, mouse. The settings on record: read-out: FAAH % inh. 1 μM (mouse).

This passage reports inhibition and IC50 results from patent publication US10266497B2 (ABIDE THERAPEUTICS, INC., priority 2017, dated 2019).

Molecules are shown by their SMILES. Where two headings read alike, the source gives them in different places.

Turning to `C[C@@H]1CN(Cc2ccc(C(F)(F)F)cc2N2C3CCC2COC3)CCN1C(=O)n1ccc(C(=O)O)n1` [Example 393, 1-((2R)-4-(2-(3-oxa-8-azabicyclo[3.2.1]octan-8-yl)-4-(trifluoromethyl)benzyl)-2-methylpiperazine-1-carbonyl)-1H-pyrazole-3-carboxylic acid], the inhibition at 1 µM at MAGL [1] and on MAGL [3] was more than 75% throughout. Also, the inhibition at 5 mg/kg at MAGL [2] lay in the range of 0 to 25%.

With `CC(C)(O)COc1cccc(O[C@H]2C[C@@H]3CN(C(=O)n4ccc(C(=O)O)n4)C[C@@H]3C2)c1Cl` [Example 451, 1-(trans-5-(2-chloro-3-(2-hydroxy-2-methylpropoxy)phenoxy)octahydro-cyclopenta[c]pyrrole-2-carbonyl)-1H-pyrazole-3-carboxylic acid], the inhibition at 1 µM at MAGL [1] and on MAGL [3] was more than 75% each time. The inhibition at 5 mg/kg at MAGL [2] (C57Bl/6J mice) is 0 to 25%.

With `CN(Cc1ccc(C(F)(F)F)c(N2CCCC2)c1)C1(C)CCN(C(=O)n2ccc(C(=O)O)n2)CC1` [Example 385, 1-(4-methyl-4-(methyl(3-(pyrrolidin-1-yl)-4-(trifluoromethyl)benzyl)amino)piper-idine-1-carbonyl)-1H-pyrazole-3-carboxylic acid], the inhibition at 1 µM at MAGL [1] and at MAGL [3] was more than 75% in each case. Further, on MAGL [2], the inhibition at 5 mg/kg lay in the range of 0 to 25%.

Consider `CN(Cc1ccc(C(F)(F)F)cc1N1CCCCC1)C1(C)CCN(C(=O)n2ccc(C(=O)O)n2)CC1` [Example 397, 1-(4-methyl-4-(methyl(2-(piperidin-1-yl)-4-(trifluoromethyl)benzyl)amino)piper-idine-1-carbonyl)-1H-pyrazole-3-carboxylic acid], for which the inhibition at 1 µM on MAGL [1] and at MAGL [3] was more than 75% throughout. On MAGL [2] (C57Bl/6J mice), the inhibition at 5 mg/kg lay within 0 to 25%.

As to `NC(=O)c1ccn(C(=O)N2CCC3(CCN(Cc4cc(Cl)ccc4Cl)C3)C2)n1` (stereo not shown) [Example 426, 1-(7-(2,5-dichlorobenzyl)-2,7-diazaspiro[4.4]non-ane-2-carbonyl)-1H-pyrazole-3-carboxamide], on MAGL [2] (C57Bl/6J mice), the inhibition at 5 mg/kg was more than 75%. The inhibition at 1 µM at MAGL [3] is more than 75%.

For the compound `CNC(=O)c1ccn(C(=O)N2CC3CN(Cc4ccc(Cl)cc4)CC3C2)n1` (stereo not shown) [Example 424, 1-(5-(4-chlorobenzyl)octahydropyrrolo [3,4-c]pyrrole-2-carbonyl)-N-methyl-1H-pyrazole-3-carboxamide], on MAGL [2] (C57Bl/6J mice), the inhibition at 5 mg/kg was more than 75%. For the same compound, the inhibition at 1 µM at MAGL [3] was more than 75%.

Turning to `NC(=O)c1ccn(C(=O)N2CCC3(CCN(Cc4cc(Cl)cc(C(F)(F)F)c4)C3)C2)n1` (stereo not shown) [Example 433, 1-(7-(3-chloro-5-(trifluoromethyl)benzyl)-2,7-diazaspiro[4.4]non-ane-2-carbonyl)-1H-pyrazole-3-carboxamide], the inhibition at 5 mg/kg on MAGL [2] (C57Bl/6J mice) was more than 75%. Besides, at MAGL [3], the inhibition at 1 µM is more than 75%.

Take `O=C(O)c1ccn(C(=O)N2CCN(Cc3cccc(Oc4ccccc4Cl)c3)CC2)n1` [Example 85, 1-(4-(3-(2-chlorophenoxy)benzyl)piperazine-1-carbonyl)-1H-pyrazole-3-carboxylic acid]: the IC50 (as a rule, the concentration that inhibits the measured activity by half) at FAAH [4] lay within 1000 to 10000 nM. The inhibition at 1 µM was 0 to 25% at FAAH [4], 50 to 75% at FAAH [5], more than 75% on MAGL [1] and more than 75% at MAGL [3].

As to `O=C(O)c1ccn(C(=O)N2CCN(Cc3cc(Cl)cc(Oc4ccc(Cl)cc4)c3)CC2)n1` [Example 19, 1-(4-(3-Chloro-5-(4-chlorophenoxy)benzyl)piperazine-1-carbonyl)-1H-pyrazole-3-carboxylic Acid], the IC50 at FAAH [4] lay within 100 to 1000 nM. In addition, the inhibition at 1 µM at FAAH [4], on FAAH [5], on MAGL [1] and at MAGL [3] was more than 75% each time.
